Results as given in ChEMBL document CHEMBL5236621, “Synthesis and biological evaluation of N-(benzene sulfonyl)acetamide derivatives as anti-inflammatory and analgesic agents with COX-2/5-LOX/TRPV1 multifunctional inhibitory activity” (Bioorg Med Chem Lett, 2023).
pIC50: −log10 of the molar value.

Experiments:
[1] = biological target: T1, Polyunsaturated fatty acid 5-lipoxygenase (Homo sapiens, UniProt P09917); test: Inhibition of 5-LOX (unknown origin)
T1 sequence (P09917 whole entry): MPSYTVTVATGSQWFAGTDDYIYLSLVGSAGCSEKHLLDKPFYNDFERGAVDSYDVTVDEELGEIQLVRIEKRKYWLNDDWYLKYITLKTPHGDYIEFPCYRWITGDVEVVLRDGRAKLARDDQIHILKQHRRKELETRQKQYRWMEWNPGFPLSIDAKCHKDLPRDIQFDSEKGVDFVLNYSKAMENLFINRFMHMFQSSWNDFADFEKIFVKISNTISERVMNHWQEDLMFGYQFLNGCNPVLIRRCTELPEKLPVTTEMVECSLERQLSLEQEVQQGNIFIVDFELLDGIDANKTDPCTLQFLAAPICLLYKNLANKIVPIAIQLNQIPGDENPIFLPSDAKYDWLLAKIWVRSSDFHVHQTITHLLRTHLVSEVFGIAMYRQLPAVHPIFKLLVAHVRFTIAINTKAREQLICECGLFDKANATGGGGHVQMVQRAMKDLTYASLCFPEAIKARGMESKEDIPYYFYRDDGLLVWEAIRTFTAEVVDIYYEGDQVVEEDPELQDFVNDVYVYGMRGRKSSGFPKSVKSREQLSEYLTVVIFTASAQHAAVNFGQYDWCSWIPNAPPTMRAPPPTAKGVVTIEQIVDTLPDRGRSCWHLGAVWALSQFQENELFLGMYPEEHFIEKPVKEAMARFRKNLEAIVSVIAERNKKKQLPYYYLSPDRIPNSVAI

[2] = biological target: Prostaglandin G/H synthase 2
[3] = biological target: Transient receptor potential cation channel subfamily V member 1 (Homo sapiens, UniProt Q8NER1); test: Inhibition of TRPV1 (unknown origin)
Chain of Transient receptor potential cation channel subfamily V member 1 (Q8NER1 whole entry): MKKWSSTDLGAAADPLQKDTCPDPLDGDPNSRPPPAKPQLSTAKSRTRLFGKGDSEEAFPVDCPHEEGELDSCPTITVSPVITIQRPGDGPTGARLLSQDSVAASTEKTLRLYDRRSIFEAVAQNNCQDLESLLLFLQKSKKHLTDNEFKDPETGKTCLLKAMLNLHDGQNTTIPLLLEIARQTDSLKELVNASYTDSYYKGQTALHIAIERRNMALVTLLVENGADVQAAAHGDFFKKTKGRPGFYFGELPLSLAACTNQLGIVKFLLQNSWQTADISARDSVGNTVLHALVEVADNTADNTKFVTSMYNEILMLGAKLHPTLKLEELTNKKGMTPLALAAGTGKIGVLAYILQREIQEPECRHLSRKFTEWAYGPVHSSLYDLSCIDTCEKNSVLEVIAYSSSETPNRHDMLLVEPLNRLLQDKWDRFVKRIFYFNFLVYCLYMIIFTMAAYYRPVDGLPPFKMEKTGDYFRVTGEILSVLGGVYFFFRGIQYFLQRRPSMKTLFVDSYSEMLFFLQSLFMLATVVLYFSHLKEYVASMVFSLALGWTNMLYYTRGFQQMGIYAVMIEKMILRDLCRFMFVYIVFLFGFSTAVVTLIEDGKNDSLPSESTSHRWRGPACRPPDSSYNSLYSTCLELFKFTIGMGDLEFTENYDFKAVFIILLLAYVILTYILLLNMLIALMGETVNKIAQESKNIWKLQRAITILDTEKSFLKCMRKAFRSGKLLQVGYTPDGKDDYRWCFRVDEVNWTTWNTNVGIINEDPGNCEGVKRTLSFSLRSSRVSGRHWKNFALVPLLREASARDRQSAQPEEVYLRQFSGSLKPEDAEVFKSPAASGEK

[4] = Apparent clearance in Sprague-Dawley rat at 1 mg/kg, iv; format: ADME, organism-based; conditions: in vivo
[5] = Bioavailability in Sprague-Dawley rat at 1 mg/kg, iv; format: ADME, organism-based; conditions: in vivo
[6] = Cmax in Sprague-Dawley rat at 10 mg/kg, IG; format: ADME, organism-based; parameters: dose 10 mg/kg, route ig; conditions: in vivo, po
[7] = Tmax in Sprague-Dawley rat at 10 mg/kg, IG; format: ADME, organism-based; conditions: in vivo, po
Mus musculus [8] = species: Mus musculus; test: Analgesic activity in formalin-induced mouse pain model assessed as reduction in immediate response by measuring licking time; format: functional
Mus musculus [9] = species: Mus musculus; test: Analgesic activity in formalin-induced mouse pain model assessed as time consumed for nociceptive behavior by measuring licking time; format: functional
Mus musculus [10] = test: Antiinflammatory activity against capsaicin-induced mouse ear edema model assessed as decrease in ear thickness at 20 mg/kg relative to control; format: functional

| SMILES | pIC50 [1] | pIC50 [2] | pIC50 [3] | clearance [4] [mL/min/kg] | bioavailability [5] [%] | Cmax [6] [ng/mL] | Tmax [7] [h] | Time (Mus musculus [8]) [min] | Time (Mus musculus [9]) [s] | inhibition in vivo at 20 mg/kg (Mus musculus [10]) [%] |
| --- | --- | --- | --- | --- | --- | --- | --- | --- | --- | --- |
| COc1cc(/C=C/C(=O)[N-]S(=O)(=O)c2ccc(-n3nc(C(F)(F)F)cc3-c3ccc(C)cc3)cc2)ccc1[O-].[Na+].[Na+] | 6.51 | 7.64 | 6.85 | 8.64 | 13.3 |  |  |  |  |  |
| COc1cc(C(=O)[N-]S(=O)(=O)c2ccc(-n3nc(C(F)(F)F)cc3-c3ccc(C)cc3)cc2)ccc1[O-].[Na+].[Na+] | 6.34 | 7.96 |  | 3.24 | 96.8 | 5810 | 4.5 | 0 | 85.5 |  |
| Cc1ccc(-c2cc(C(F)(F)F)nn2-c2ccc(S(=O)(=O)NC(=O)C(C)c3ccc(CC(C)C)cc3)cc2)cc1 (stereo unspecified) | 6.28 | 7.60 | 5.99 |  |  |  |  |  |  |  |
| Cc1ccc(-c2cc(C(F)(F)F)nn2-c2ccc(S(N)(=O)=O)cc2)cc1 [CELECOXIB] | < 5.00 |  | < 5.00 |  |  |  |  |  |  | 48.8 |

Further compounds by rising pIC50 [1], results first:

| pIC50 [1] | pIC50 [2] | pIC50 [3] | SMILES | clearance [4] [mL/min/kg] | bioavailability [5] [%] | Cmax [6] [ng/mL] | Tmax [7] [h] | Time (Mus musculus [8]) [min] | Time (Mus musculus [9]) [s] | inhibition in vivo at 20 mg/kg (Mus musculus [10]) [%] |
| --- | --- | --- | --- | --- | --- | --- | --- | --- | --- | --- |
| 5.85 | 6.43 | < 5.00 | Cc1ccc(-c2cc(C(F)(F)F)nn2-c2ccc(S(=O)(=O)NC(=O)CCCCC3CCSS3)cc2)cc1 (stereo unspecified) |  |  |  |  |  |  |  |
| 6.04 | 7.46 |  | CCOC(=O)NS(=O)(=O)c1ccc(-n2nc(C(F)(F)F)cc2-c2ccc(C)cc2)cc1 |  |  |  |  |  |  |  |
| 6.92 | 7.12 |  | Cc1ccc(-c2cc(C(F)(F)F)nn2-c2ccc(S(=O)(=O)NC(=O)c3ccccc3)cc2)cc1 |  |  |  |  |  |  |  |
